Measured values published in ChEMBL document CHEMBL1201862, “PubChem BioAssay data set” (2004).
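All cell lines were grown in 96-well plates and treated with compound for 48 hours. Abbreviation: GI50, concentration required for 50% inhibition of growth.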 Calls of active or inactive are those of the source. Cut-off read from the data, not from the text of the source: active = GI50 up to about 1.1 µM and inactive = higher.

Legend:
Assay in all cases: inhibition of tumour cell growth, NCI panel, 48 h
SNB-75 = tested on: SNB-75
UACC-62 = tested on: UACC-62
NCI-H522 = tested on: NCI-H522
ACHN = tested on: ACHN
HCC 2998 = tested on: HCC 2998
CAKI-1 = tested on: CAKI-1
MDA-MB-435 = tested on: MDA-MB-435
OVCAR-3 = tested on: OVCAR-3
SF-295 = tested on: SF-295
K562 = tested on: K562
786-0 = tested on: 786-0
UACC-257 = tested on: UACC-257
SK-MEL-5 = tested on: SK-MEL-5
IGROV-1 = tested on: IGROV-1
SK-MEL-28 = tested on: SK-MEL-28
MDA-MB-231 = tested on: MDA-MB-231
SK-OV-3 = tested on: SK-OV-3
BT-549 = tested on: BT-549
OVCAR-4 = tested on: OVCAR-4
HOP-92 = tested on: HOP-92
TK-10 = tested on: TK-10
NCI-H226 = tested on: NCI-H226
A498 = tested on: A498
HCT-15 = tested on: HCT-15
NCI/ADR-RES = tested on: NCI/ADR-RES
EKVX = tested on: EKVX
KM12 = tested on: KM12
A549 = tested on: A549
PC-3 = tested on: PC-3
HCT-116 = tested on: HCT-116
SF-268 = tested on: SF-268
NCI-H23 = tested on: NCI-H23
SN12C = tested on: SN12C
Malme-3M = tested on: Malme-3M
OVCAR-5 = tested on: OVCAR-5
U-251 = tested on: U-251
MCF7 = tested on: MCF7
SW-620 = tested on: SW-620
SR = tested on: SR
LOX IMVI = tested on: LOX IMVI
SNB-19 = tested on: SNB-19
NCI-H460 = tested on: NCI-H460
OVCAR-8 = tested on: OVCAR-8
RXF 393 = tested on: RXF 393
HOP-62 = tested on: HOP-62
RPMI-8226 = tested on: RPMI-8226
COLO 205 = tested on: COLO 205
DU-145 = tested on: DU-145
UO-31 = tested on: UO-31
M14 = tested on: M14
HT-29 = tested on: HT-29
SF-539 = tested on: SF-539
MDA-N = tested on: MDA-N
SK-MEL-2 = tested on: SK-MEL-2
Hs-578T = tested on: Hs-578T
CCRF-CEM = tested on: CCRF-CEM
MOLT-4 = tested on: MOLT-4
T47D = tested on: T47D

Measured: GI50

Cn1ccnc1CC(C)(O)c1ccccc1 (stereo not drawn)
> 100 µM: HCT-15
inactive: SNB-75 > 100 µM | UACC-62 > 100 µM | NCI-H522 > 100 µM | ACHN > 100 µM | HCC 2998 > 100 µM | CAKI-1 > 100 µM | MDA-MB-435 > 100 µM | OVCAR-3 > 100 µM | SF-295 > 100 µM | K562 > 100 µM | 786-0 > 100 µM | UACC-257 > 100 µM | SK-MEL-5 > 100 µM | IGROV-1 > 100 µM | SK-MEL-28 > 100 µM | MDA-MB-231 > 100 µM | SK-OV-3 > 100 µM | BT-549 > 100 µM | OVCAR-4 > 100 µM | HOP-92 > 100 µM | TK-10 > 100 µM | NCI-H226 > 100 µM | A498 > 100 µM | NCI/ADR-RES > 100 µM | EKVX > 100 µM | KM12 > 100 µM | A549 > 100 µM | PC-3 > 100 µM | HCT-116 > 100 µM | SF-268 > 100 µM | NCI-H23 > 100 µM | SN12C > 100 µM | Malme-3M > 100 µM | OVCAR-5 > 100 µM | U-251 > 100 µM | MCF7 > 100 µM | SW-620 > 100 µM | SR > 100 µM | LOX IMVI > 100 µM | SNB-19 > 100 µM | NCI-H460 > 100 µM | OVCAR-8 > 100 µM | RXF 393 > 100 µM | HOP-62 > 100 µM | RPMI-8226 > 100 µM | COLO 205 > 100 µM | DU-145 > 100 µM | UO-31 > 100 µM | M14 > 100 µM | HT-29 > 100 µM | SF-539 > 100 µM | MDA-N > 100 µM | SK-MEL-2 > 100 µM | Hs-578T > 100 µM

CNC(=O)c1nc[nH]c1/N=N/N(C)N
inactive: SNB-75 80.9 µM | UACC-62 > 100 µM | NCI-H522 > 100 µM | HCC 2998 > 100 µM | CAKI-1 > 100 µM | MDA-MB-435 > 100 µM | OVCAR-3 > 100 µM | SF-295 > 100 µM | K562 > 100 µM | 786-0 > 100 µM | UACC-257 > 100 µM | SK-MEL-5 49.9 µM | CCRF-CEM > 10 µM | IGROV-1 > 100 µM | SK-MEL-28 > 100 µM | MDA-MB-231 > 100 µM | SK-OV-3 > 100 µM | BT-549 > 100 µM | MOLT-4 > 100 µM | OVCAR-4 > 100 µM | TK-10 > 100 µM | NCI-H226 > 100 µM | A498 > 100 µM | NCI/ADR-RES > 100 µM | EKVX > 100 µM | KM12 40.5 µM | A549 > 100 µM | PC-3 > 100 µM | HCT-116 > 100 µM | SF-268 > 100 µM | NCI-H23 > 100 µM | SN12C > 100 µM | Malme-3M > 100 µM | OVCAR-5 > 100 µM | U-251 > 100 µM | SW-620 > 100 µM | LOX IMVI 74.6 µM | NCI-H460 55 µM | OVCAR-8 > 100 µM | RXF 393 > 100 µM | T47D > 100 µM | HOP-62 > 100 µM | RPMI-8226 > 100 µM | COLO 205 > 100 µM | DU-145 > 100 µM | UO-31 > 100 µM | M14 > 100 µM | HT-29 > 100 µM | SF-539 > 100 µM | MDA-N > 100 µM | SK-MEL-2 > 100 µM | Hs-578T > 100 µM
> 100 µM: HCT-15
